Laboratory results taken from patent publication US9765061B2, “Trail enhancers for the selective killing of cancer cells” (The Scripps Research Institute, priority 2013, dated 2017).

Assays:
A549 cell line = test: Viability of A549 cells, XTT-based assay, with or without TRAIL; assay type: cell-based, human
Method: FIG. 4: C12 sensitizes long cancer cell line A549 to TRAIL. (A) Viability of cells was examined after 24-hour incubation in media containing TRAIL (50 ng/ml), compound (C12) (1 μM), compound (C12R) (25 μM) or the indicated combination of TRAIL (T) with (C12) or (C12R). The chemical structures of (C12) and its stereoisomer (C12R) are shown on the right. (B) Viability of cells was examined after 24-hour incubation in media, containing TRAIL (50 ng/ml) and the indicated doses of C12. Viable cells remaining after the treatment were determined as a function of mitochondrial activity of living cells according to XTT-based toxicology assay kit (Sigma) and are shown as a percentage of viable untreated cells.
To test this hypothesis, we examined the effect of C12 in vitro on the activity of TRAIL against A549 cell line derived from a cancer sample of the human lung.
Cytotoxicity was determined by using the XTT-based toxicology assay kit (Sigma, St. Louis, Miss.) in accordance with the manufacturer's instructions. For some experiments, to confirm the apoptotic nature of toxicity, cells were analyzed using protocols and instructions of the Annexin V-FITC apoptosis detection kit (Biovision, Mountain View, Calif.). In addition, caspase 3, 8 and 9 activities were determined by colorimetric assays (R&D System), and the data are expressed as fold increases compared to the values of untreated or control-treated cells (n=5).

sXBP1 (UPR) = test: RT-PCR assay of spliced XBP1 mRNA (sXBP1) in macrophages; assay type: cell-based, mouse; settings: FIG. 1D and 1E
Description: FIG. 1: C12 induces the UPR in mammalian cells. (A and B). Comparison of the macrophage responsiveness to P. aeruginosa (P.a.), S. typhimurium (S.t), and S. aureus (S.a.). RT-PCR assay of XBP1 (A) and Western blot analysis (B) of p38, its phosphorylated form (p-p38) as well as phosphorylated forms of PERK (p-PERK) and eIF2α (p-eIF2α) in cell extracts after treatment with bacteria are shown. (C) Macrophages were stimulated with P. aeruginosa wild type (wt) or lasI mutant (ΔlasI), and cell extracts (total RNA or total protein) were prepared and analyzed as in (A and B). […] (F) Total RNA was prepared from lung of mice after inoculation of vehicle (-) or (C12) and analyzed in (D). […]
Among key biochemical signatures of the multicomponent ER stress pathway, known as the unfolded protein response (UPR), are the phosphorylation of the α-subunit of eukaryotic translation initiation factor-2 (eIF2α) and activation of the transcription factor XBP1/Hac1 (X-box binding protein-1 in metazoans and homologous to ATF/CREB in yeast, respectively) ^11. […] To initiate our studies, we exposed bone marrow-derived macrophages (BMDM) to these bacteria, and macrophage responsiveness was analyzed for biochemical markers of the UPR and the phosphorylation of the mitogen-activated protein kinase p38, as a common marker of TLR pathways. […]

SMILES: CCCCCCCCCC(=O)CC(=O)N[C@H]1CCOC1=O [Compound 1, N-(3-oxo-dodecanoyl) homoserine lactone]
- cell growth and viability, compound alone (A549 cell line; C12 1 μM or 25 μM, C12R 25 μM, no TRAIL): practically unchanged
- sensitivity of A549 cells to TRAIL in the presence of compound (A549 cell line; FIG. 8A): comparable increase in sensitivity
- cytotoxicity at 0.1 µM (A549 cell line; Homo sapiens, A549, 100 nM of C12 and 50 ng/ml of TRAIL, 24-hours incubation, read-out: cells that lost their viability): > 50%
- viability of A549 cells (A549 cell line; combination of TRAIL (50 ng/ml) and C12 (1 μM)): dramatically reduced
- induction of sXBP1 / activation of the UPR (sXBP1 (UPR)): time- and dose-dependent induction of sXBP1
